Test results from PubChem BioAssay (NCI).
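Test compounds were applied to cells in 96-well plates for 48 hours at 5 doses. The concentration for full growth arrest is given as TGI.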

How the values were obtained:
Experiment in all cases: NCI tumour cell line growth inhibition, 48 h
[1] = test system: OVCAR-3 ovarian
[2] = test system: SW-620 colon
[3] = test system: SN12C renal
[4] = test system: NCI/ADR-RES ovarian
[5] = test system: CCRF-CEM leukemia
[6] = test system: A498 renal
[7] = test system: KM12 colon
[8] = test system: UACC-62 melanoma
[9] = test system: HCT-116 colon
[10] = test system: EKVX NSCLC
[11] = test system: SNB-19 CNS
[12] = test system: MALME-3M melanoma
[13] = test system: IGROV1 ovarian
[14] = test system: SK-MEL-28 melanoma
[15] = test system: OVCAR-4 ovarian
[16] = test system: NCI-H23 lung
[17] = test system: LOX IMVI melanoma
[18] = test system: M14 melanoma
[19] = test system: BT-549 breast
[20] = test system: SF-539 CNS
[21] = test system: HS 578T breast
[22] = test system: OVCAR-5 ovarian
[23] = test system: 786-0 renal
[24] = test system: SF-295 CNS
[25] = test system: UACC-257 melanoma
[26] = test system: RPMI-8226 leukemia
[27] = test system: MDA-MB-435
[28] = test system: NCI-H226 lung
[29] = test system: NCI-H522 lung
[30] = test system: CAKI-1 renal
[31] = test system: OVCAR-8 ovarian
[32] = test system: HCC-2998 colon
[33] = test system: NCI-H460 lung
[34] = test system: COLO 205 colon
[35] = test system: A549 NSCLC
[36] = test system: MOLT-4 leukemia
[37] = test system: MCF7 breast
[38] = test system: HT29 colon
[39] = test system: HOP-62 NSCLC
[40] = test system: SK-MEL-5 melanoma
[41] = test system: K-562 leukemia
[42] = test system: HCT-15 colon
[43] = test system: DU-145 prostate
[44] = test system: ACHN renal
[45] = test system: SF-268 CNS
[46] = test system: MDA-N
[47] = test system: SK-OV-3 ovarian
[48] = test system: UO-31 renal
[49] = test system: U251 CNS
[50] = test system: HOP-92 NSCLC
[51] = test system: TK-10 renal
[52] = test system: MDA-MB-231 breast
[53] = test system: HL-60(TB) leukemia
[54] = test system: SNB-75 CNS
[55] = test system: RXF 393 renal
[56] = test system: SK-MEL-2 melanoma
[57] = test system: PC-3 prostate
[58] = test system: SR leukemia

Measured: TGI

CC1=NN(c2nc(N)nc(-c3sccc3N)n2)C(C)(C)C1
70.9 µM: [26]
not listed: [55] | [56] | [57] | [58]
> 100 µM: all other assays above

O=P(O)(O)c1ccccc1Oc1ccccc1
not listed: [12] | [15] | [38] | [58]
> 100 µM: all other assays above

Cc1ccc(C(=O)N/N=C(\N=Nc2ccccc2)c2ccc(N(C)C)cc2)cc1
not listed: [6] | [12] | [21] | [39] | [44] | [54] | [55]
> 100 µM: all other assays above

CSc1nc(NC(C)C)c2c(n1)Sc1nc3ccccc3n1N=C2
31.3 µM: [43]
47.3 µM: [56]
22.2 µM: [39]
25.1 µM: [1]
46.7 µM: [4]
12.6 µM: [6]
35.3 µM: [2]
35.4 µM: [3]
20.9 µM: [44]
39 µM: [11]
16.7 µM: [23]
36.8 µM: [51]
21.5 µM: [9]
79.5 µM: [33]
60.9 µM: [7]
25.6 µM: [48]
24.1 µM: [24]
70.3 µM: [27]
54.5 µM: [21]
23.9 µM: [40]
60 µM: [37]
50.5 µM: [29]
29.9 µM: [49]
22.5 µM: [15]
28.8 µM: [31]
38 µM: [12]
30.2 µM: [52]
23.6 µM: [8]
25.3 µM: [32]
28.2 µM: [47]
38.6 µM: [35]
38.7 µM: [16]
31.2 µM: [50]
not listed: [20] | [54] | [55]
> 100 µM: all other assays above
